Experimental data: the supplement of paper PMC10307832

Columns and labels:
Assay in all cases: relative viability (nuclei count vs DMSO), 5 days (fraction); higher = more cells survive
Elesclomol + Bortezomib = compound: CN(NC(=O)CC(=O)NN(C)C(=S)c1ccccc1)C(=S)c1ccccc1 [Elesclomol] + CC(C)C[C@H](NC(=O)[C@H](Cc1ccccc1)NC(=O)c1cnccn1)B(O)O [Bortezomib] (partner 0.002 µM)
Procedure, shortened: (§1)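 Relative viability was taken as the ratio of nuclei in treated wells to nuclei in vehicle wells. Lung cancer cell lines in 1536-well plates received compounds by pin tool one day after seeding, either one drug alone or a fixed anchor-drug dose plus five library-drug doses (not always all listed) in √10 steps. Nuclei were counted on 4× images after 5 days of treatment, and values are medians of duplicate plates.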

Elesclomol + Pictilisib = compound: CN(NC(=O)CC(=O)NN(C)C(=S)c1ccccc1)C(=S)c1ccccc1 [Elesclomol] + CS(=O)(=O)N1CCN(Cc2cc3nc(-c4cccc5[nH]ncc45)nc(N4CCOCC4)c3s2)CC1 [Pictilisib] (partner 1 µM)
Procedure, shortened: as §1

Elesclomol + Crizotinib = compound: CN(NC(=O)CC(=O)NN(C)C(=S)c1ccccc1)C(=S)c1ccccc1 [Elesclomol] + C[C@@H](Oc1cc(-c2cnn(C3CCNCC3)c2)cnc1N)c1c(Cl)ccc(F)c1Cl [Crizotinib] (partner 1 µM)
Procedure, shortened: as §1

Elesclomol + Linsitinib = compound: CN(NC(=O)CC(=O)NN(C)C(=S)c1ccccc1)C(=S)c1ccccc1 [Elesclomol] + C[C@]1(O)C[C@@H](c2nc(-c3ccc4ccc(-c5ccccc5)nc4c3)c3c(N)nccn32)C1 [Linsitinib] (partner 1 µM)
Procedure, shortened: as §1

Elesclomol + Alpelisib = compound: CN(NC(=O)CC(=O)NN(C)C(=S)c1ccccc1)C(=S)c1ccccc1 [Elesclomol] + Cc1nc(NC(=O)N2CCC[C@H]2C(N)=O)sc1-c1ccnc(C(C)(C)C(F)(F)F)c1 [Alpelisib] (partner 2 µM)
Procedure, shortened: as §1

Row | Cell Line | relative viability (Elesclomol + Bortezomib; first compound 0.003162 µM) | relative viability (Elesclomol + Bortezomib; first compound 0.01 µM) | relative viability (Elesclomol + Bortezomib; first compound 0.03162 µM) | relative viability (Elesclomol + Bortezomib; first compound 0.1 µM) | relative viability (Elesclomol + Pictilisib; first compound 0.003162 µM) | relative viability (Elesclomol + Pictilisib; first compound 0.01 µM) | relative viability (Elesclomol + Pictilisib; first compound 0.03162 µM) | relative viability (Elesclomol + Pictilisib; first compound 0.1 µM) | relative viability (Elesclomol + Crizotinib; first compound 0.003162 µM) | relative viability (Elesclomol + Crizotinib; first compound 0.01 µM) | relative viability (Elesclomol + Crizotinib; first compound 0.03162 µM) | relative viability (Elesclomol + Crizotinib; first compound 0.1 µM) | relative viability (Elesclomol + Linsitinib; first compound 0.003162 µM) | relative viability (Elesclomol + Linsitinib; first compound 0.01 µM) | relative viability (Elesclomol + Linsitinib; first compound 0.03162 µM) | relative viability (Elesclomol + Linsitinib; first compound 0.1 µM) | relative viability (Elesclomol + Alpelisib; first compound 0.003162 µM) | relative viability (Elesclomol + Alpelisib; first compound 0.01 µM) | relative viability (Elesclomol + Alpelisib; first compound 0.03162 µM) | relative viability (Elesclomol + Alpelisib; first compound 0.1 µM)
1 | NCI-H1355 | 1.15 | 1.08 | 0.828 | 0.24 | 0.549 | 0.191 | 0.257 | 0.178 | 1.02 | 1.02 | 0.701 | 0.203 | 0.803 | 0.663 | 0.486 | 0.17 | 0.832 | 0.636 | 0.466 | 0.16
2 | NCI-H1437 | 0.388 | 0.32 | 0.268 | 0.264 | 0.391 | 0.321 | 0.198 | 0.137 | 0.769 | 0.457 | 0.504 | 0.329 | 0.883 | 0.56 | 0.271 | 0.186 | 0.886 | 0.61 | 0.341 | 0.283
3 | NCI-H1563 | 0.732 | 0.62 | 0.457 | 0.492 | 0.656 | 0.582 | 0.587 | 0.486 | 0.649 | 0.623 | 0.502 | 0.453 | 0.817 | 0.705 | 0.632 | 0.468 | 0.687 | 0.613 | 0.537 | 0.527
4 | NCI-H1651 | 0.859 | 0.931 | 0.872 | 0.655 | 0.454 | 0.323 | 0.177 | 0.0888 | 0.81 | 0.833 | 0.951 | 0.531 | 0.748 | 0.673 | 0.193 | 0.111 | 0.762 | 0.435 | 0.235 | 0.0895
5 | NCI-H1666 | 0.826 | 0.334 | 0.278 | 0.172 | 0.359 | 0.267 | 0.243 | 0.195 | 0.745 | 0.271 | 0.235 | 0.15 | 0.833 | 0.358 | 0.321 | 0.202 | 0.765 | 0.232 | 0.277 | 0.116
6 | NCI-H1703 | 0.136 | 0.0882 | 0.104 | 0.12 | 0.198 | 0.106 | 0.133 | 0.128 | 0.151 | 0.137 | 0.0928 | 0.0853 | 0.179 | 0.122 | 0.0723 | 0.0652 | 0.225 | 0.135 | 0.0986 | 0.0874
7 | NCI-H1734 | 0.957 | 0.738 | 0.405 | 0.12 | 0.511 | 0.328 | 0.248 | 0.117 | 0.66 | 0.586 | 0.382 | 0.0924 | 0.907 | 0.745 | 0.8 | 0.154 | 0.722 | 0.588 | 0.625 | 0.131
8 | NCI-H1755 | 1.06 | 0.831 | 0.951 | 0.304 | 0.481 | 0.225 | 0.409 | 0.202 | 0.849 | 0.827 | 0.692 | 0.222 | 1.01 | 1.04 | 0.967 | 0.223 | 0.931 | 0.9 | 0.909 | 0.24
9 | NCI-H1792 | 0.894 | 0.85 | 0.968 | 0.986 | 0.262 | 0.171 | 0.3 | 0.357 | 0.939 | 0.945 | 1 | 1.01 | 0.506 | 0.387 | 0.584 | 0.577 | 0.621 | 0.505 | 0.718 | 0.858
10 | NCI-H1915 | 0.857 | – | 1.01 | 0.526 | 0.924 | – | 0.916 | 0.821 | 0.888 | – | 0.895 | 0.759 | 1.09 | – | 1.05 | 0.971 | 1.05 | – | 1.05 | 0.879
11 | NCI-H1975 | 0.351 | 0.316 | 0.193 | 0.109 | 0.306 | 0.179 | 0.2 | 0.123 | 0.934 | 0.835 | 0.407 | 0.132 | 0.942 | 0.764 | 0.225 | 0.126 | 0.646 | 0.468 | 0.229 | 0.11
12 | NCI-H1993 | 1.07 | 1.05 | 0.49 | 0.493 | 0.798 | 0.909 | 0.807 | 0.603 | 0.812 | 0.836 | 0.603 | 0.577 | 0.72 | 0.823 | 0.683 | 0.591 | 0.755 | 0.662 | 0.666 | 0.52
13 | NCI-H2009 | 0.929 | 0.229 | 0.115 | 0.0727 | 0.797 | 0.225 | 0.122 | 0.0966 | 1.06 | 0.644 | 0.137 | 0.109 | 1.25 | 0.677 | 0.183 | 0.142 | 1.21 | 0.885 | 0.458 | 0.14
14 | NCI-H2023 | 0.744 | 0.374 | 0.146 | 0.0637 | 0.219 | 0.148 | 0.0682 | 0.0514 | 0.44 | 0.248 | 0.0779 | 0.0736 | 0.697 | 0.319 | 0.209 | 0.0484 | 0.604 | 0.236 | 0.269 | 0.074
15 | NCI-H2085 | 0.938 | 0.662 | 0.577 | 0.349 | 0.419 | 0.444 | 0.433 | 0.322 | 0.881 | 0.495 | 0.339 | 0.226 | 0.786 | 0.596 | 0.432 | 0.247 | 0.895 | 0.621 | 0.555 | 0.286
16 | NCI-H2087 | 0.896 | 0.49 | 0.502 | 0.495 | 0.879 | 0.559 | 0.491 | 0.495 | 0.814 | 0.531 | 0.495 | 0.457 | 1.01 | 0.607 | 0.587 | 0.696 | 1.2 | 0.701 | 0.526 | 0.566
